# In PubChem BioAssay (NCI):
#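 Abbreviation: GI50, concentration required for 50% inhibition of growth. The concentration for full growth arrest is given as TGI.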
# Experiments:
# Test in all cases: inhibition of tumour cell growth, NCI panel, 384-well format
# [1] = tested on: HOP-92 NSCLC
# [2] = tested on: RXF 393 renal
# [3] = tested on: SNB-19 CNS
# [4] = tested on: PC-3 prostate
# [5] = tested on: HCT-15 colon
# [6] = tested on: T-47D breast
# [7] = tested on: OVCAR-3 ovarian
# [8] = tested on: SK-OV-3 ovarian
# [9] = tested on: MOLT-4 leukemia
# [10] = tested on: NCI-H460 NSCLC
# [11] = tested on: LOX IMVI melanoma
# [12] = tested on: OVCAR-8 ovarian
# [13] = tested on: CCRF-CEM leukemia
# [14] = tested on: MDA-MB-231 breast
# [15] = tested on: K-562 leukemia
# [16] = tested on: NCI-H23 lung
# [17] = tested on: KM12 colon
# [18] = tested on: HT29 colon
# [19] = tested on: NCI-H226 lung
# [20] = tested on: A549 NSCLC
# [21] = tested on: HCT-116 colon
# [22] = tested on: BT-549 breast
# [23] = tested on: HL-60(TB) leukemia
# [24] = tested on: HCC-2998 colon
# [25] = tested on: SN12C renal
# [26] = tested on: RPMI-8226 leukemia
# [27] = tested on: IGROV1 ovarian
# [28] = tested on: NCI-H322M lung
# [29] = tested on: U251 glioblastoma
smiles,measurement,setting,value
C[C@H](c1ccc(Cl)cc1N)N1C(=O)c2cc(I)ccc2N(CCCN2CCN(C)CC2)C(=O)[C@@H]1c1ccc(Cl)cc1,GI50,[1],1.13 µM
same,TGI,[1],2.34 µM
same,GI50,[2],0.848 µM
same,TGI,[2],2.12 µM
same,GI50,[3],1.71 µM
same,TGI,[3],3.09 µM
same,GI50,[4],1.66 µM
same,TGI,[4],3.04 µM
same,GI50,[5],1.68 µM
same,TGI,[5],3.06 µM
same,GI50,[6],1.46 µM
same,TGI,[6],2.78 µM
same,GI50,[7],1.45 µM
same,TGI,[7],2.78 µM
same,GI50,[8],1.52 µM
same,TGI,[8],2.85 µM
same,GI50,[9],0.144 µM
same,TGI,[9],0.279 µM
same,GI50,[10],0.67 µM
same,TGI,[10],2 µM
same,GI50,[11],1.7 µM
same,TGI,[11],3.09 µM
same,GI50,[12],1.73 µM
same,TGI,[12],3.12 µM
same,GI50,[13],1.41 µM
same,TGI,[13],2.72 µM
same,GI50,[14],1.61 µM
same,TGI,[14],2.96 µM
same,GI50,[15],1.29 µM
same,TGI,[15],2.58 µM
same,GI50,[16],1.57 µM
same,TGI,[16],2.92 µM
same,GI50,[17],1.56 µM
same,TGI,[17],2.92 µM
same,GI50,[18],1.68 µM
same,TGI,[18],3.08 µM
same,GI50,[19],0.649 µM
same,TGI,[19],1.98 µM
same,GI50,[20],1.06 µM
same,TGI,[20],2.26 µM
same,GI50,[21],0.613 µM
same,TGI,[21],1.95 µM
same,GI50,[22],1.55 µM
same,TGI,[22],2.9 µM
same,GI50,[23],0.255 µM
same,TGI,[23],0.641 µM
same,GI50,[24],1.25 µM
same,TGI,[24],2.5 µM
same,GI50,[25],1.59 µM
same,TGI,[25],2.94 µM
same,GI50,[26],0.0209 µM
same,TGI,[26],0.191 µM
same,GI50,[27],1.21 µM
same,TGI,[27],2.47 µM
same,GI50,[28],1.77 µM
same,TGI,[28],3.17 µM
same,GI50,[29],1.64 µM
